Source: publication PMC3951324, “Side Chain Hydrophobicity Modulates Therapeutic Activity and Membrane Selectivity of Antimicrobial Peptide Mastoparan-X” (PLoS ONE, 2014)
≈ marks a conversion by molar mass, not a printed value. Square brackets hold non-standard residues; d marks the D form. Ends that are not written are not given here. Peptide text beside a SMILES is read from it. * marks the point of attachment. ξ: configuration not given here. ξGly(octyl) = CCCCCCCCC(N)C(=O)O; Octanoyl = CCCCCCCC(=O)*; Propionyl = CCC(=O)*

Legend:
[1] = test system: Lactococcus lactis, strain MG1363; assay: Determination of minimal inhibitory concentration (MIC); type: cell-based; conditions: strain MG1363, M9 medium, 30°C, 20 h, shaking; peptide 0.05–50 µM; absorbance 570 nm; triplicates
Description: (§1) A stock dilution series with ten points, ranging from 1 µM to 1 mM, was prepared in sterile PBS from freshly dissolved peptides. The dilution series was dispensed in triplicates in 96-deepwell microtiter plates (VWR Denmark, Herlev, Denmark), with 15 µl in each well. Multidispensing with electronic pipettes (Biohit, Tåstrup, Denmark) was used throughout. Lactococcus lactis, strain MG1363 (ATCC, LGC Standards AB, Boras, Sweden) and Escherichia coli, strain INV-α (Invitrogen, Nærum, Denmark) were grown in M9 (Sigma Aldrich, Brøndby, Denmark) and LB medium (Difco, BD Biosciences, Brøndby Denmark), respectively. A single colony was grown overnight at 30°C and 37°C for L.lactis and E.coli respectively. The next day, a fresh culture was started with a twenty-fold dilution of the cells and grown for exactly 60 min (optical density was approximately 0.4 at 570 nm). The cell culture was diluted (300 fold for L.lactis and 1000 fold for E.coli) before adding 150 µl to microtiter plates already containing 15 µl peptide solution and 135 µl fresh medium. […] Plates with L.lactis were sealed with lid and parafilm, and plates with E.coli were sealed with a gas-permeable tape (VWR Denmark, Herlev, Denmark). The plates were incubated at the respective temperatures for 20 hours with shaking (150 rpm). For each measurement, 100 µl of the cell culture was transferred to clear, flat-bottomed microtiter plates, and the absorbance at 570 nm was determined using a Victor3 plate reader (Perkin Elmer, Skovlunde, Denmark). The measurement was conducted in triplicates.

[2] = test system: Escherichia coli, strain INV-α; assay: as above; type: cell-based; conditions: LB medium, 37°C, 20 h, shaking, peptide 0.05–50 µM, absorbance 570 nm, triplicates
Description: as §1

[3] = test system: human red blood cells (RBCs); assay: Haemolysis assay; type: cell-based; conditions: for % haemolysis: human RBCs; for H5, concentration at which 5% haemolysis has been obtained: purified human erythrocytes, assay as in Etzerodt et al. [14]
Excerpt: All Fmoc (9H-fluoren-9-yl-methyloxycarbonyl) L-amino acids and HATU (1-[Bis(dimethylamino)methylene]-1H-1,2,3-triazolo[4,5-b]pyridinium 3-oxid hexafluorophosphate, N-[(Dimethylamino)-1H-1,2,3-triazolo-[4,5-b]pyridin-1-ylmethylene]-N-methylmethanaminium hexafluorophosphate N-oxide) were purchased from GLS China (GL Biochem, Shanghai, China). Fmoc-2-amino-decanoic acid was obtained from Watanabe Chemical Industries, Ltd (Hiroshima, Japan). Lys and Trp were side-chain-protected as tert-butoxycarbonyl, Asn was sidechain protected with trityl. Tentagel resin was purchased from NovaBiochem (Merck, Darmstadt, Germany). TFA (trifluoroacetic acid), TIS (triisopropylsilane), HEPES (N-(2-hydroxyethyl)piperazine-N-(2-ethanesulfonic acid)), 2,4,6-collidine and pyrene were purchased from Sigma-Aldrich (Brøndby, Denmark). Pyridine, sodium hydroxide pellets and sodium chloride was purchased from J.T. Baker Chemicals (Phillipsburg, NJ, USA). Filter supports and Hamilton extrusion syringes, POPG (1-palmitoyl-2-oleoyl-sn-glycero-3-[phospho-rac-(1-glycerol)] sodium salt), and POPC (1-palmitoyl-2-oleoyl-sn-glycero-3-phosphocholine) were purchased from Avanti Polar Lipids (Alabaster, AL). All compounds were used without further purification. Membrane filters for extrusion (100 nm pore size, polycarbonate) were purchased from Whatman (Maidstone, UK). Cuvettes (4×10 mm, quartz, Suprasil) were purchased from Hellma (Müllheim, Germany). Purified human erythrocytes for the haemolysis studies were provided by Bioneer (Hørsholm, Denmark), and were stored at 4°C for a maximum of three days before use.
The assay was conducted as described in Etzerodt et al..

[4] = Peptide partitioning by ITC; type: physicochemical; conditions: 37°C; for partition coefficient of insertion Kins/10^5: 10 mM POPC∶POPG (3∶1) LUVs into 20 µM peptide, pH 7.4, Gouy-Chapman-Stern fit, value is Kins divided by 10^5, triplicates; for effective partition coefficient Keff/10^8: derived from Kins, zeff and the surface potential of fully charged membrane (25 mol% negative charge), value is Keff divided by 10^8
Description: Lipid stock solutions of POPC and POPG were prepared in chloroform∶methanol (9∶1). Mixtures of POPC∶POPG (3∶1) were prepared and the organic solvent was evaporated under a gentle stream of nitrogen. The lipid films were kept in vacuum (P<0.1 Pa) overnight in order to remove the residual solvent. Buffer containing 10 mM HEPES and 100 mM sodium chloride (pH 7.4) was added to the lipid films, and they were hydrated for 60 min followed by extrusion through 100 nm using an Avanti mini-extruder. Dynamic Light Scattering (DLS, Brookhaven Instrument Corporation, ZetaPALS) was used for measuring the liposome size distribution. The effective lipid concentration was determined by inductively coupled plasma atomic emission spectroscopy (ICP-AES Vista AX, Varian).
The partitioning of AMPs onto lipid membranes was investigated by isothermal titration calorimetry (ITC, iTC200, Microcal, 204 µL cell volume). For the peptide analogues MPX, Ala1 and Ala14, 10 mM […] (3∶1) LUVs were injected (19×2 µL) into a 20 µM peptide solution at T = 37°C. The speed of the stirrer was 1000 rpms, and all titration were initiated with a 0.5 µL pre-injection. The heat-traces were integrated using custom made software, and the heat of partitioning was analysed using a partitioning isotherm based on Gouy-Chapman-Stern description of the electrostatic interaction of the peptide and membrane, [32]. The effective charge of the peptide (zeff), the partitioning coefficient of insertion (Kins), the molar enthalpy of partitioning ( [drawing 4] ), and the heat of dilution (qdil) were extracted as fitting parameters. The effective partitioning coefficient was derived as [drawing 5] where F is Faradays constant, [drawing 6] is the electrostatic potential evaluated at the interface of a fully charged membrane (25mol% negative charge before insertion of the first peptide), and R is the ideal gas constant. The instrument was electrically calibrated, and blank titration of LUVs into buffer was performed to ensure that heat of dilution could be modelled as a constant in the data analysis. Each titration was conducted in triplicates.

| Compound | MIC (L. lactis) [1] | MIC (E. coli) [2] | % haemolysis ([3]; 50 µM peptide) | H5, concentration at which 5% haemolysis has been obtained [3] | % haemolysis ([3]; 200 µM peptide) | partition coefficient of insertion Kins/10^5 [4] | effective partition coefficient Keff/10^8 [4] |
| --- | --- | --- | --- | --- | --- | --- | --- |
| CCCCCCCCC(N)C(=O)N[C@@H](CC(N)=O)C(=O)N[C@@H](Cc1c[nH]c2ccccc12)C(=O)N[C@@H](CCCCN)C(=O)NCC(=O)N[C@H](C(=O)N[C@@H](C)C(=O)N[C@@H](C)C(=O)N[C@@H](CCSC)C(=O)N[C@@H](C)C(=O)N[C@@H](CCCCN)C(=O)N[C@@H](CCCCN)C(=O)N[C@@H](CC(C)C)C(=O)N[C@@H](CC(C)C)C(N)=O)[C@@H](C)CC (stereo partly shown) [Adec1] (H-[ξGly(octyl)]NWKGIAAMAKKLL-NH2) | 1.7 ± 0.4 µM (≈ 2.74 µg/mL) | 3.3 ± 0.8 µM (≈ 5.32 µg/mL) | full haemolysis | 0.7 ± 0.1 µM | – | – | – |
| CCCCCCCCC(NC(=O)[C@H](C)NC(=O)[C@@H](NC(=O)CNC(=O)[C@H](CCCCN)NC(=O)[C@H](Cc1c[nH]c2ccccc12)NC(=O)[C@H](CC(N)=O)NC(=O)[C@@H](N)[C@@H](C)CC)[C@@H](C)CC)C(=O)N[C@@H](CCSC)C(=O)N[C@@H](C)C(=O)N[C@@H](CCCCN)C(=O)N[C@@H](CCCCN)C(=O)N[C@@H](CC(C)C)C(=O)N[C@@H](CC(C)C)C(N)=O (stereo partly shown) [Adec8] (H-INWKGIA[ξGly(octyl)]MAKKLL-NH2) | 4.2 ± 0.8 µM (≈ 6.95 µg/mL) | 4.2 ± 0.8 µM (≈ 6.95 µg/mL) | full haemolysis | 1 ± 1 µM | – | – | – |
| CCCCCCCCC(NC(=O)[C@H](CC(C)C)NC(=O)[C@H](CCCCN)NC(=O)[C@H](CCCCN)NC(=O)[C@H](C)NC(=O)[C@H](CCSC)NC(=O)[C@H](C)NC(=O)[C@H](C)NC(=O)[C@@H](NC(=O)CNC(=O)[C@H](CCCCN)NC(=O)[C@H](Cc1c[nH]c2ccccc12)NC(=O)[C@H](CC(N)=O)NC(=O)[C@@H](N)[C@@H](C)CC)[C@@H](C)CC)C(N)=O (stereo partly shown) [Adec14] (H-INWKGIAAMAKKL[ξGly(octyl)]-NH2) | 1.7 ± 0.4 µM (≈ 2.74 µg/mL) | 3.3 ± 0.8 µM (≈ 5.32 µg/mL) | full haemolysis | 0.8 ± 0.2 µM | – | – | – |
| CCCCCCCC(=O)N[C@H](C(=O)N[C@@H](CC(N)=O)C(=O)N[C@@H](Cc1c[nH]c2ccccc12)C(=O)N[C@@H](CCCCN)C(=O)NCC(=O)N[C@H](C(=O)N[C@@H](C)C(=O)N[C@@H](C)C(=O)N[C@@H](CCSC)C(=O)N[C@@H](C)C(=O)N[C@@H](CCCCN)C(=O)N[C@@H](CCCCN)C(=O)N[C@@H](CC(C)C)C(=O)N[C@@H](CC(C)C)C(N)=O)[C@@H](C)CC)[C@@H](C)CC [OAMPX] (Octanoyl-INWKGIAAMAKKLL-NH2) | 3.3 ± 0.8 µM (≈ 5.55 µg/mL) | 5 ± 1 µM (≈ 8.41 µg/mL) | full haemolysis | 1.1 ± 0.3 µM | – | – | – |
| CCC(=O)N[C@H](C(=O)N[C@@H](CC(N)=O)C(=O)N[C@@H](Cc1c[nH]c2ccccc12)C(=O)N[C@@H](CCCCN)C(=O)NCC(=O)N[C@H](C(=O)N[C@@H](C)C(=O)N[C@@H](C)C(=O)N[C@@H](CCSC)C(=O)N[C@@H](C)C(=O)N[C@@H](CCCCN)C(=O)N[C@@H](CCCCN)C(=O)N[C@@H](CC(C)C)C(=O)N[C@@H](CC(C)C)C(N)=O)[C@@H](C)CC)[C@@H](C)CC [PAMPX] (Propionyl-INWKGIAAMAKKLL-NH2) | 3.3 ± 0.8 µM (≈ 5.32 µg/mL) | 21 ± 4 µM (≈ 33.9 µg/mL) | 10% | 25 ± 1 µM | – | – | – |
| ANWKGIAAMAKKLL-NH2 [Ala1] | 18 ± 7 µM | 33 ± 8 µM | ~1.5% | 230 ± 10 µM | ~4% | 1.1±0.1 | 25±7 |
| INWKGIAAMAKKLA-NH2 [Ala14] | 21 ± 4 µM | 33 ± 8 µM | ~1.5% | 220 ± 20 µM | ~4% | 1.4±0.3 | 1.1±0.2 |
| INWKGIALMAKKLL-NH2 [Leu8] | 2.5 ± 1.3 µM | 7 ± 3 µM | – | 14 ± 2 µM | – | – | – |
